Assay in all cases: HotSpot kinase assay, PAK subtype selectivity
Holding throughout (assay type): biochemical

For one assay, the target named is T1, PAK6 (Homo sapiens, UniProt Q9NQU5).
T1 construct: purchased Reaction Biology Corporation (Malvern, PA, USA)
The settings on record: relative percentage inhibition at 20 μM with staurosporine. As to the method:
(§1) To examine the enzyme activity, HotSpot kinase assay was performed at Reaction Biology Corporation (Malvern, PA, USA). The kinase and substrate pairs were prepared in reaction buffer: 20 mM HEPES at pH 7.5, 10 mM MgCl2, 1 mM EGTA, 0.02% Brij 35, 0.02 mg/mL BSA, 0.1 mM Na3VO4, 2 mM DTT, and 1% DMSO. Compounds were added into the kinase reaction mixture and incubated for 20 min. Then, ^32 P-ATP was introduced to the mixture to initiate the reaction carried out at 10 μM of ATP concentration. After 2 h at room temperature, the mixture was spotted onto P81 ion exchange paper and kinase activity was then evaluated utilising the filter-binding method. Compounds were tested for single dose enzyme inhibition at a concentration of 20 μM. For the control compound, staurosporine was tested in a 10-dose IC50 mode. To determine the IC50 value, the compounds were tested for 10-doses with 3-fold serial dilution starting at 100 μM.
(§2) Synthesised compounds were evaluated for their in vitro PAK4 enzyme inhibitory activities. In vitro kinase assays were performed using HotSpot kinase assays for relative enzyme inhibitory activity at a single concentration (20 μM) and IC50 assessment at an ATP concentration of 10 μM (Figure 1(B)). […] For the allosteric pocket binder, cyclohexyl group (SPA7012) was preferable to the smaller dimethyl (SPA7011) or hydroxymethyl group (SPA7013), and the aromatic ring (SPA7014) reduced activity compared to the saturated ring (SPA7012). In vitro enzyme IC50 values appeared in the order of SPA7012, SPA7017, and SPA7016. […] Molecular docking analysis was performed on the human PAK4 catalytic domain structure complexed with GNE-2861 (PDB code: 4O0V). The binding pose of SPA7012 overlapped well with the crystal structure of GNE-2861, with the allosteric binder properly positioned in the specific back pocket. The oxygen atom in the tertiary alcohol of the hydrophobic allosteric binder formed hydrogen bonds with the backbone of Phe459 and the side chain of Glu366 (Figure 1(D)). The amine group and nitrogen atom in the pyrazolo[3,4-d]pyrimidine core scaffold also formed hydrogen bonds with Lue398 at the hinge region. Finally, SPA7012 was decided as a lead compound for further examination with satisfactory potency and subtype selectivity.

The target in another assay is T2, PAK3 (Homo sapiens, UniProt O75914).
T2 construct: purchased Reaction Biology Corporation (Malvern, PA, USA)
T2 sequence (O75914 whole entry): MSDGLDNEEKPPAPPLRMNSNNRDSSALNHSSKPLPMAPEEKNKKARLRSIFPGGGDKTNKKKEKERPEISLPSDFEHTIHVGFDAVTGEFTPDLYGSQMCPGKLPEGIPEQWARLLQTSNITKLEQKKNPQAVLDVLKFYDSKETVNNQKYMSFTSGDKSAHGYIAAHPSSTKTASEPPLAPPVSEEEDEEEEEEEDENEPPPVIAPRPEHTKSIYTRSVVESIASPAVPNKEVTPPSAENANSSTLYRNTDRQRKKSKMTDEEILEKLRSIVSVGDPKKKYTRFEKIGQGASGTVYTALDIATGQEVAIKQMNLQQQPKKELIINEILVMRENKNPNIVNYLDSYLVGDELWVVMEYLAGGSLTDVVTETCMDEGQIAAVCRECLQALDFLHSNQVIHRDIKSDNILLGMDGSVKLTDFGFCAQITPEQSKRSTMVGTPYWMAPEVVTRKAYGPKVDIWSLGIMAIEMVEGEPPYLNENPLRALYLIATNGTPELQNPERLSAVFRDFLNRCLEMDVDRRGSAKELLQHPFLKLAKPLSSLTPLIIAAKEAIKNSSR
The settings on record: relative percentage inhibition at 20 μM with staurosporine. As to the method:
as §1, §2

A further assay concerns the target T3, PAK1 (Homo sapiens, UniProt Q13153).
T3 construct: purchased Reaction Biology Corporation (Malvern, PA, USA)
The settings on record: relative percentage inhibition at 20 μM with staurosporine. The method, then:
as §1, §2

The next assay concerns the target T4, PAK2 (Homo sapiens, UniProt Q13177).
T4 construct: purchased Reaction Biology Corporation (Malvern, PA, USA)
The note with it: relative percentage inhibition at 20 μM with staurosporine. As to the method:
as §1, §2

For the next assay, the target named is T5, PAK5 (Homo sapiens, UniProt Q9P286).
T5 construct: purchased Reaction Biology Corporation (Malvern, PA, USA)
T5 sequence (Q9P286 whole entry): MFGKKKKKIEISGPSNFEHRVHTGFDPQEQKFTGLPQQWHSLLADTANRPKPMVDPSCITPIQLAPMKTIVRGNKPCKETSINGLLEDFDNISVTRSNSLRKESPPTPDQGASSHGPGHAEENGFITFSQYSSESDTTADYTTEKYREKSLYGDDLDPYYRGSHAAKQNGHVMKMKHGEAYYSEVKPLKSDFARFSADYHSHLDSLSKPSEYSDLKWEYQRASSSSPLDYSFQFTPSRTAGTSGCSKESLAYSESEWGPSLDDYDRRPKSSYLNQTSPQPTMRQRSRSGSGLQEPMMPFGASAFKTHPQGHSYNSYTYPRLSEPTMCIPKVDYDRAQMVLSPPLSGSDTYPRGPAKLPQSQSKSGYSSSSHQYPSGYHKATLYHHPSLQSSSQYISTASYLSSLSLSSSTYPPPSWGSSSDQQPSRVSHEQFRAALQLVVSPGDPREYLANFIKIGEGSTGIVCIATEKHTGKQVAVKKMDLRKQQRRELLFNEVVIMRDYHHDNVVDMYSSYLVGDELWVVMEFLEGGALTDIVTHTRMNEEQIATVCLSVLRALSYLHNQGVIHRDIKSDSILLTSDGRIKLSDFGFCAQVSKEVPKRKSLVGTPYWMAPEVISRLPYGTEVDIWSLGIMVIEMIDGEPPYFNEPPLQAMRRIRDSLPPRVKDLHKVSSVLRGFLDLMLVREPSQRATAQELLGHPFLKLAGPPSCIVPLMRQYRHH
The method, then: as §1, §2

T1 sequence (Q9NQU5 whole entry): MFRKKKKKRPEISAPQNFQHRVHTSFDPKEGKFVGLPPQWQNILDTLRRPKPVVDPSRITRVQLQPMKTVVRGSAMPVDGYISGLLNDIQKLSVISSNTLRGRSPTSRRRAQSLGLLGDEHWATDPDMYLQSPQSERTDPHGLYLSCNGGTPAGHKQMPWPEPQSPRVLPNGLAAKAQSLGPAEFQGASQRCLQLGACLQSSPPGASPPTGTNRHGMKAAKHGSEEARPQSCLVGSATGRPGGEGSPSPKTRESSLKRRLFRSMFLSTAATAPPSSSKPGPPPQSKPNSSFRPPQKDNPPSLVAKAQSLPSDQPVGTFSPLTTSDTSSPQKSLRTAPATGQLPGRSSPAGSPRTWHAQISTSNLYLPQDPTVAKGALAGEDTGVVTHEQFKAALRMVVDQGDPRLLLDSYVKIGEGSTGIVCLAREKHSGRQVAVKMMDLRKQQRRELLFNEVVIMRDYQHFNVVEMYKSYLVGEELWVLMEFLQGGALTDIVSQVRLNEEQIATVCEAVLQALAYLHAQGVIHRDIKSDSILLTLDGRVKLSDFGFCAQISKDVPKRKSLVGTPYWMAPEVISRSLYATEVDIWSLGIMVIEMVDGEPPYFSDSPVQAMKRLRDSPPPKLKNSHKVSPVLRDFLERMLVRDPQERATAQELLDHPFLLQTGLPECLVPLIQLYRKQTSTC
T4 sequence (Q13177 whole entry): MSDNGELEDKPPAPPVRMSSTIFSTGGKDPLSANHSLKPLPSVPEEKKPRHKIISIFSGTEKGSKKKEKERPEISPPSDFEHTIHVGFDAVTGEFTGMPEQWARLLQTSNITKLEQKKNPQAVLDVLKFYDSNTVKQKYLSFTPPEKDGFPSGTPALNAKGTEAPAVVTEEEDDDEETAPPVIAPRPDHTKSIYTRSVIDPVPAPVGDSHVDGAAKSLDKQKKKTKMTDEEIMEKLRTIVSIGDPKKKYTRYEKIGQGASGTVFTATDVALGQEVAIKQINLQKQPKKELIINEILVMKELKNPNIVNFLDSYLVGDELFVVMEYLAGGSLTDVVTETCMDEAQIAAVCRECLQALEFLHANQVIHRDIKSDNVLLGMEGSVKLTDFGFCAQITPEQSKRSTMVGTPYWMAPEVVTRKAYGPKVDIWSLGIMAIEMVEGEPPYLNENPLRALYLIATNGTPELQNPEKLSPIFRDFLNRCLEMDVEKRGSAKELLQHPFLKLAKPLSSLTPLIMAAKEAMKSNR
T3 sequence (Q13153 whole entry): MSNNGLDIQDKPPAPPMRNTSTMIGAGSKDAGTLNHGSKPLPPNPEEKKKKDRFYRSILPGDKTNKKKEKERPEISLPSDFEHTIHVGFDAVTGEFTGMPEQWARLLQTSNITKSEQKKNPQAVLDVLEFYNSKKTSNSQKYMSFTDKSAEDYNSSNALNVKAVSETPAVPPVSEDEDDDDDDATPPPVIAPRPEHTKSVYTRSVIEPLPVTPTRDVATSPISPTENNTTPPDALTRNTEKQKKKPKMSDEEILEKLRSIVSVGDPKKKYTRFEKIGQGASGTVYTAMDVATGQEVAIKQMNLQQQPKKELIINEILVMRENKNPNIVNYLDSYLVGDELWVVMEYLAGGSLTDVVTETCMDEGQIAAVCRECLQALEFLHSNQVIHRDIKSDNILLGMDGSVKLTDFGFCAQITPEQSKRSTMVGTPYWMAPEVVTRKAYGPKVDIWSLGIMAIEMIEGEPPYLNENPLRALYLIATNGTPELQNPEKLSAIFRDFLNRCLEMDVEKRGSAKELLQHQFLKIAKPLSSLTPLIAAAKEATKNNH

For `Cc1nn(-c2cccc(C#CC3(O)CCCCC3)c2)c2ncnc(N)c12` [Compound 14b, 3-(4-Amino-3-methylpyrazolo[3,4-d]pyrimidin-1-yl)phenylethynylcyclohexan-1-ol], the “PAK6 % inhibitory activity” value on PAK6 is 36%. For the same molecule, the “PAK3 % inhibitory activity” value on PAK3 is listed as 5%. The “PAK1 % inhibitory activity” value on PAK1 was found to be 16%. In addition, at PAK2, the “PAK2 % inhibitory activity” value was 36%. The half-maximal inhibitory concentration (IC50) at PAK5 (HotSpot kinase assay) was more than 100 µM. In addition, the “PAK5 % inhibitory activity” value at PAK5 (relative percentage inhibition at 20 μM with staurosporine) turned out to be 52%.

For orientation: IC50 means the concentration that inhibits the measured activity by half. High values mean weaker potency in that assay, low ones greater potency in that assay.

These data come from paper PMC9354638, “Targeting p21-activated kinase 4 (PAK4) with pyrazolo[3,4-d]pyrimidine derivative SPA7012 attenuates hepatic ischaemia-reperfusion injury in mice” (Journal of Enzyme Inhibition and Medicinal Chemistry, 2022).
